Source: patent publication US4656247A, “Effective hormonal peptides: D-3-QA1 6-LHRH” (Board of Regents, The University of Texas System, priority 1985, dated 1987)

Experiments:
[1] = tested on: pituitary cells from 21 day old rats; experiment: In vitro pituitary incubate assay (release of LH and FSH); type: cell-based, rat
Protocol: The data in Tables IV and V are from the in vitro assay of the peptides with the pituitary incubate. This assay measures the release of LH and FSH in an in vitro system with pituitary cells from 21 day old rats. See, Bowers, C. Y. et al. on the inhibitory effects of leutinizing hormone releasing hormone analogs. Endocrinology, 106: 674 (1980).

[2] = Peptides tested biologically (summary statement); settings: when tested biologically
[3] = tested on: 21 day old female rats; experiment: In vivo assay in rats for release of LH and FSH; set-up: species or system rat; settings: for Serum LH ng/ml ± SEM / Serum FFSH ng/ml ± SEM: Table VI, sampling time not given; for LH ± SEM ng/ml serum / FSH ± SEM ng/ml serum: Table XI, mean 5-6; for LH ng/ml Serum ± SEM: Table VII
Protocol: In vivo rat assay performed by a modification of the method of Bowers, C. Y. et al. Endocrinology, 106, 674 (1980). 21 day old female rats were injected sc with saline or peptide. Blood samples for the RIAs of LH and FSH were collected at +15, +60, +120, or +180 minutes. (Table VI-XI).

[4] = tested on: men; settings: chronic administration; cited from earlier work
[5] = tested on: advanced prostatic carcinoma; settings: subcutaneous, daily; cited from earlier work
[6] = 150 ng sc, first column (+ 2 hrs as in upper part)
[7] = 150 ng sc, second column (+3 hrs as in upper part)

## CC(C)C[C@H](NC(=O)[C@@H](Cc1cccnc1)NC(=O)[C@H](Cc1ccc(O)cc1)NC(=O)[C@H](CO)NC(=O)[C@H](Cc1c[nH]c2ccccc12)NC(=O)[C@H](Cc1c[nH]cn1)NC(=O)[C@@H]1CCC(=O)N1)C(=O)N[C@@H](CCCNC(=N)N)C(=O)N1CCC[C@H]1C(=O)NCC(N)=O [D-Pal^6 -LHRH, pyroGlu-His-Trp-Ser-Tyr-D-3-Pal-Leu-Arg-Pro-GlyNH2]
[1]; at 0.1 ng, Table IV
  activity for the release of FSH (D-Pal^6 vs D-Qal^6, words): same essential equivalents
  activity for the release of LH (D-Pal^6 vs D-Qal^6, words): essentially equivalent in activity
[1]; inference from Table IV and comparable assays
  potency compared with D-Trp^6 -LHRH, inferred via D-Qal^6 -LHRH: essentially equipotent
[2]
  potency compared with LHRH: significantly more potent than LHRH itself
[3]; 5 ng/rat sc
  Serum LH ng/ml ± SEM: 7 ± 1 ng/mL
[3]; 50 ng sc, + 2 hrs
  LH ± SEM ng/ml serum: 108 ± 17 ng/ml serum
[3]; 50 ng sc, +3 hrs
  LH ± SEM ng/ml serum: 20 ± 2.3 ng/ml serum
[3]; 50 ng sc, first column (+ 2 hrs as in upper part)
  FSH ± SEM ng/ml serum: 1727 ± 222 ng/ml serum
[3]; 50 ng sc, second column (+3 hrs as in upper part)
  FSH ± SEM ng/ml serum: 1312 ± 163 ng/ml serum
[3]; 150 ng sc, + 2 hrs
  LH ± SEM ng/ml serum: 144 ± 27 ng/ml serum
[3]; 150 ng sc, +3 hrs
  LH ± SEM ng/ml serum: 38 ± 6.3 ng/ml serum
[3]; [6]
  FSH ± SEM ng/ml serum: 2362 ± 293 ng/ml serum
[3]; [7]
  FSH ± SEM ng/ml serum: 1617 ± 143 ng/ml serum
[3]; dosage of 5 ng
  release of LH: significantly released LH
[3]; dosage of 50 ng
  LH released relative to LHRH, corrected for the level of LH before addition of the peptides: ~50 times

## LHRH: leutinizing hormone releasing hormone, the peptide hormone which exists naturally in the hypothalamus
[3]; 15 ng/rat sc
  Serum FFSH ng/ml ± SEM: 475 ± 43 ng/mL
  Serum LH ng/ml ± SEM: 1.3 ± 0.2 ng/mL
[3]; 50 ng/rat sc
  Serum FFSH ng/ml ± SEM: 572 ± 68 ng/mL
  Serum LH ng/ml ± SEM: 3.2 ± 0.3 ng/mL
[3]; 150 ng/rat sc
  Serum FFSH ng/ml ± SEM: 839 ± 73 ng/mL
  Serum LH ng/ml ± SEM: 12 ± 3 ng/mL
[3]; ± 15 min
  LH ng/ml Serum ± SEM: 49 ± 10 ng/mL
[3]; ± 60 min
  LH ng/ml Serum ± SEM: 5.5 ± 0.9 ng/mL
[3]; 150 ng sc, + 2 hrs
  LH ± SEM ng/ml serum: .18 ± 0.07 ng/ml serum
[3]; 150 ng sc, +3 hrs
  LH ± SEM ng/ml serum: 0.66 ± 0.46 ng/ml serum
[3]; [6]
  FSH ± SEM ng/ml serum: 337 ± 20 ng/ml serum
[3]; [7]
  FSH ± SEM ng/ml serum: 487 ± 72 ng/ml serum
[3]; at 15 ng
  release of LH: inactive

## CC(C)C[C@H](NC(=O)[C@@H](Cc1c[nH]c2ccccc12)NC(=O)[C@H](Cc1ccc(O)cc1)NC(=O)[C@H](CO)NC(=O)[C@H](Cc1c[nH]c2ccccc12)NC(=O)[C@H](Cc1c[nH]cn1)NC(=O)[C@@H]1CCC(=O)N1)C(=O)N[C@@H](CCCNC(=N)N)C(=O)N1CCC[C@H]1C(=O)NCC(N)=O [D-Trp^6 -LHRH, pyroGluHis-Trp-Ser-Tyr-D-Trp-Leu-Arg-Pro-Gly-NH2]
[4]
  effect on Leydig cell function and serum steroid levels: suppression of Leydig cell function and decreases in serum levels of testosterone, dihydrotestosterone and estradiol
[5]
  clinical effect in patients with more advanced prostatic disease: pain from bone metastases was relieved
  clinical effect in patients with urinary obstruction: noticeable clinical improvement
[3]; 10 mg/rat sc, ± 60 min
  LH ng/ml Serum ± SEM: 31 ± 6 ng/mL
[3]; ± 15 min
  LH ng/ml Serum ± SEM: 51 ± 10 ng/mL
[3]; ± 60 min
  LH ng/ml Serum ± SEM: 259 ± 34 ng/mL
[3]; 150 ng sc, + 2 hrs
  LH ± SEM ng/ml serum: 230 ± 41 ng/ml serum
[3]; 150 ng sc, +3 hrs
  LH ± SEM ng/ml serum: 117 ± 9 ng/ml serum
[3]; [6]
  FSH ± SEM ng/ml serum: 2332 ± 388 ng/ml serum
[3]; [7]
  FSH ± SEM ng/ml serum: 2065 ± 151 ng/ml serum

## CCNC(=O)[C@@H]1CCCN1C(=O)[C@H](CCCNC(=N)N)NC(=O)[C@H](CC(C)C)NC(=O)[C@@H](Cc1c[nH]c2ccccc12)NC(=O)[C@H](Cc1ccc(O)cc1)NC(=O)[C@H](CO)NC(=O)[C@H](Cc1c[nH]c2ccccc12)NC(=O)[C@H](Cc1c[nH]cn1)NC(=O)[C@@H]1CCC(=O)N1 [D-Trp^6 Pro^9 Net-LHRH, pyroGluHis-Trp-Ser-Tyr-D-Trp-Leu-Arg-Pro-EA**]
[3]; ± 15 min
  LH ng/ml Serum ± SEM: 59 ± 10 ng/mL
[3]; ± 60 min
  LH ng/ml Serum ± SEM: 228 ± 41 ng/mL
[3]; 150 ng sc, + 2 hrs
  LH ± SEM ng/ml serum: 184 ± 29 ng/ml serum
[3]; 150 ng sc, +3 hrs
  LH ± SEM ng/ml serum: 103 ± 9 ng/ml serum
[3]; [6]
  FSH ± SEM ng/ml serum: 2260 ± 294 ng/ml serum
[3]; [7]
  FSH ± SEM ng/ml serum: 1763 ± 148 ng/ml serum

## CCNC(=O)[C@@H]1CCCN1C(=O)[C@H](CCCNC(=N)N)NC(=O)[C@H](CC(C)C)NC(=O)[C@@H](Cc1cccnc1)NC(=O)[C@H](Cc1ccc(O)cc1)NC(=O)[C@H](CO)NC(=O)[C@H](Cc1c[nH]c2ccccc12)NC(=O)[C@H](Cc1c[nH]cn1)NC(=O)[C@@H]1CCC(=O)N1 [Peptide 21436, pryoGlu-His-Trp-Ser-Tyr-D-3-Pal-Leu-Arg-Pro-NHC2 H5]
[3]; 150 ng sc, + 2 hrs
  LH ± SEM ng/ml serum: 237 ± 52 ng/ml serum
[3]; 150 ng sc, +3 hrs
  LH ± SEM ng/ml serum: 106 ± 13 ng/ml serum
[3]; [6]
  FSH ± SEM ng/ml serum: 2415 ± 361 ng/ml serum
[3]; [7]
  FSH ± SEM ng/ml serum: 2205 ± 298 ng/ml serum
